Here are results for two substances from PMC3561256, “Anti-infectious and anti-inflammatory effects of peptide fragments sequentially derived from the antimicrobial peptide centrocin 1 isolated from the green sea urchin, Strongylocentrotus droebachiensis” (AMB Express, 2012).

Where “and” joins values, the source holds several entries; their conditions need not be identical. Equal entries are not always repeated. No end group written: not given here.

One data set has as its system S. aureus (ATCC 12600). Put plainly: Minimal microbicidal concentration (MMC99) assay. Format: cell-based, Staphylococcus aureus. As for the experimental part: (§1) All the synthesised peptides were tested for their in vitro microbicidal activity against S. aureus (American Type Culture Collection (ATCC) 12600) and P. aeruginosa (ATCC 15442) using a minimal microbicidal concentration (MMC) assay as previously described (Haversen et al. [2010]). Bacteria were cultured in 3.7% brain heart infusion (BHI) broth (Difco, BD Diagnostics, Franklin Lakes, NJ) on a shaker at 250 rpm overnight at 37°C. The culture was diluted 1:10 in fresh 3.7% BHI and incubated for two additional hours to reach log-phase growth. The bacteria were pelleted by centrifugation at 900 × g and suspended in 0.037% BHI to a concentration of 10^7 CFU/mL, estimated by measuring optical density at 600 nm (OD600). To investigate the influence of physiological conditions on microbicidal effect of the peptides, four different assay media were used: 0.037% BHI, 0.037% BHI supplemented with 85 or 150 mM sodium chloride (NaCl), and 50% heat inactivated simulated wound fluid (h.i. SWF) composed of a 50:50 mixture of 0.1% peptone (Oxoid, Basingstoke, UK) in 150 mM NaCl and fetal bovine serum (FBS; PAA Laboratories GmbH, Pasching, Austria), diluted two times in ultra pure water. The peptides were serially diluted by twofold steps from 200 to 1.56 mg/L in the assay media used, and 100 μL of the peptide solutions were mixed with 5 μL bacterial suspensions in a 96 well plate (Nunc, Roskilde, Denmark) and incubated at 37°C for two hours. An aliquot of 5 μL from each well was aspirated and added as drops onto blood agar plates (Columbia agar; Oxoid, Basingstoke, UK) supplemented with 5% defibrinated horse blood (Swedish National Veterinary Institute (SVA), Uppsala, Sweden), and the plates were incubated overnight at 37°C. All samples were processed as duplicates. The minimal test compound concentration causing ≥99% reduction of bacteria was defined as the MMC99. The concentration of the bacterial suspension used in the assay was confirmed by viable count estimation on blood agar plates (Oxoid).
(§2) CEN1 HC was further screened for microbicidal activity against a panel of microbial strains using the MMC99 assay, as described above, except using only two different assay media; 0.037% BHI and 50% h.i. SWF. The following microbial strains were tested for sensitivity: S. aureus (ATCC 12600), MRSA (ATCC 33591), Staphylococcus epidermidis (ATCC 12228), Streptococcus pyogenes (ATCC 12344), Propionibacterium acnes (ATCC 6919) Escherichia coli (ATCC 11775), P. aeruginosa (ATCC 15442), Klebsiella pneumoniae (Culture collection, University of Gothenburg (CCUG) 59413, clinical isolate resistant to penicillins, cephalosporins, aztreonam and carbapenems, with the reference strain ATCC 13883), Acinetobacter baumannii (CCUG 58437, clinical isolate resistant to tobramycin, trimsulfa, ciprofloxacin, cefotaxim, ceftazidim, meropenem, pipera/tazobactam, with the reference strain ATCC 19606) and the yeast strain Candida albicans (ATCC 64549). Mupirocin (GlaxoSmithKline) and fusidic acid (LEO Pharma) were used as comparative control antibiotics.

In data set [1] the test system is P. aeruginosa (ATCC 15442). Put plainly: Minimal microbicidal concentration (MMC99) assay. In kind it is cell-based, Pseudomonas aeruginosa. As for the experimental part:
as §1, §2

Data set [2] has as its system TNF-α secretion from THP-1 cells. Put plainly: Inhibition of TNF-α secretion from LPS-stimulated THP-1 derived macrophages (ELISA). Format: cell-based, human. The conditions noted are these: PMA-differentiated THP-1 cells, LPS 0.1 ng/mL, peptide added 30 min after LPS, 6 h, triplicate, IC50 ± SEM, 4-parameter fit (Origin). As for the experimental part:
The human monocytic cell line THP-1 (ATCC TIB-202) was cultured in RPMI 1640 medium (PAA Laboratories GmbH) supplemented with 10% FBS (PAA Laboratories GmbH), 1 mM sodium pyruvate (Sigma-Aldrich, St. Louis, MO), and 20 mM 4-(2-hydroxyethyl)-1-piperazineethanesulfonic acid (HEPES; PAA Laboratories GmbH). The cell density was adjusted to 10^6 cells/mL and 100 μL of the cell suspension was added to each well of 96 well plates (Sarstedt, Nümbrecht, Germany). The cells were treated with 10 ng/mL phorbol 12-myristate 13-acetate (PMA; Sigma-Aldrich) to differentiate the monocytes into macrophage-like cells. After 48 h, the cells were stimulated by adding 0.1 ng/mL LPS into the medium specified above, except that 10% FBS was replaced with 5% h.i. FBS. The LPS concentration used was selected based on in vitro titration experiments to give a close to maximum release of cytokines into the cell culture medium over a period of six hours (data not shown). The indicated concentrations of the peptides were added 30 min after addition of LPS. After six hours of incubation, the plates were centrifuged for six minutes at 400 × g and the supernatants were collected and kept frozen at −20°C until analysed for TNF-α and IL-6 production. The cytokine levels were analysed using enzyme-linked immunosorbent assay (ELISA; R&D Systems, Minneapolis, MN).

The conditions of data set [3]: synthesis and antimicrobial testing of the different monomers; ref Li et al. [2010]; cited from earlier work. The text has this: Invertebrates are proving to be a rich source of AMPs, possibly because of their more pronounced reliance on innate immune functions in their defence against microbial pathogens compared to vertebrates. Many of the peptides isolated from marine species are structurally unique, display significant biological activities and are therefore expected to be useful drug leads (Sperstad et al. [2011]). In a previous study, we detected broad-spectrum antibacterial activity in coelomocyte (blood cell) extracts of the green sea urchin, S. droebachiensis (Haug et al. [2002]). Subsequently, an AMP named cen ...

For the next data set, the system named is MRSA (ATCC 33591). In kind it is in vivo. As to conditions: rat excision wound model (MRSA or P. aeruginosa infected), topical application, experimental period. The source says: The ability of CEN1 HC and CEN1 HC (Ser) to reduce bacterial counts was estimated in an excision wound model in rat designed based on previously published studies (Gisby and Bryant [2000]; McRipley and Whitney [1976]; Rittenhouse et al. [2006]; Saymen et al. [1972]). Briefly, female Sprague–Dawley rats (200–250 g, Charles River Laboratories, Sulzfeldt, Germany) were housed at the Laboratory of Experimental Biomedicine, Gothenburg, Sweden. They were kept in a 12-h light–dark cycle and were cared for in accordance with regulations for the protection of laboratory animals. All animal experiments were performed after prior approval from the local Ethics Committee for Animal Studies at the Administrative Court of Appeals in Gothenburg, Sweden. The rats were acclimatised in cages for a minimum of five days before surgery, with four rats in each cage. They had free access to water and pellets (Lab For, Lantmännen, Sweden). The rats were anaesthetised during the whole experiment and the anaesthesia was induced by an intra-peritoneal injection of a mixture of fentanyl (272 μg/kg; B. Braun Melsungen AG, Melsungen, Germany) and medetomidine hydrochloride (545 μg/kg; Domitor, Orion Pharma Animal Health AB, Sollentuna, Sweden). The backs of the rats were shaved and swabbed with 70% chlorhexidine alcohol (Fresenius Kabi AB, Uppsala, Sweden). […] Plates containing 30–300 CFU were counted. […]

[4] abbreviates: Table 2 screen, medium 0.037% BHI + 85 mM NaCl, 2 h at 37°C, up to 200 mg/L, duplicates, maximum of at least two independent experiments.
Where [5] appears, read: Table 2 screen, medium 0.037% BHI + 150 mM NaCl, 2 h at 37°C, up to 200 mg/L, duplicates, maximum of at least two independent experiments.
Where [6] appears, read: Table 2 screen, medium 50% heat inactivated simulated wound fluid, 2 h at 37°C, up to 200 mg/L, duplicates, maximum of at least two independent experiments.

With “GW(Br)FKKTFHKVSHAVKSGIHAGQRGCSALGF [CEN1 HC-Br, heavy chain of centrocin 1, 30 residues, brominated tryptophan in position 2]”, the “S. aureus MMC99, 0.037% BHI + 85 mM NaCl” value in the data set on S. aureus (ATCC 12600) (setting [4]) is reported as 25 mg/L. Further, the “S. aureus MMC99, 0.037% BHI + 150 mM NaCl” value in the data set with S. aureus (ATCC 12600) (setting [5]) is listed as 50 mg/L. In addition, in the data set with S. aureus (ATCC 12600) (Table 2 screen, medium 0.037% BHI, ≥99% reduction of bacteria, 2 h at 37°C, tested up to 200 mg/L, duplicates, maximum value from at least two independent experiments), the “S. aureus MMC99, 0.037% BHI” value is on record as 25 mg/L. Also, the “S. aureus MMC99, 50% SWF” value in the data set with S. aureus (ATCC 12600) (setting [6]) is 25.0 to 50.0 mg/L and 50 mg/L. For the same substance, the “S. aureus MMC99, 0.037% BHI with 85 mM or 150 mM NaCl” value in the data set with S. aureus (ATCC 12600) (text summary over both NaCl concentrations of Table 2a) was in the range of 25.0 to 50.0 mg/L. Besides, the “P. aeruginosa MMC99, 0.037% BHI + 85 mM NaCl” value in data set [1] (setting [4]) is on record as 12.5 mg/L. In addition, in data set [1] (setting [5]), the “P. aeruginosa MMC99, 0.037% BHI + 150 mM NaCl” value was 25 mg/L. The “P. aeruginosa MMC99, 0.037% BHI” value in data set [1] (Table 2 screen, medium 0.037% BHI, 2 h at 37°C, up to 200 mg/L, duplicates, maximum of at least two independent experiments) stood at 25 mg/L. Also, in data set [1] (setting [6]), the “P. aeruginosa MMC99, 50% SWF” value is 100.0 mg/L and 100 mg/L. In addition, the “P. aeruginosa MMC99, 0.037% BHI with 85 mM or 150 mM NaCl” value in data set [1] (text summary over both NaCl concentrations of Table 2b, compared to 0.037% BHI only) is “no reduction in effect”. In addition, in data set [2], the “IC50, TNF-α secretion” value is around 4.0 µg/mL. Besides, the “Antimicrobial activity of the synthesised monomers of centrocin 1” value in data set [3] is “equally active as the original dimeric peptide”.
As for “GWFKKTFHKVSHAVKSGIHAGQRGCSALGF [CEN1 HC]”, the “Animal death or local reactions in connection to the application of the test article” value in the data set on MRSA (ATCC 33591) is on record as “No animal death or local reactions”.
